Results published in patent US20110039721A1, “METHOD FOR PREDICTION ABOUT CARCINOGENICITY OF SUBSTANCE IN RODENT” (Chemicals Evaluation and Research Institute, priority 2007, published 2011).

Columns and labels:
liver = details: in vivo; cited from earlier work
rodent = details: in vivo; cited from earlier work
[1] = system: mRNA expressed from the genes (A) to (D) in rat liver; test: Behavior of genes (mRNA expression level, oligo-DNA microarray) in rat liver after 28-day oral administration; assay type: in vivo
In short: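 Oral gavage, once daily × 28 days; male F344 SPF rats, 5 wk, n=4/group; vehicle controls given equal solvent volume. Liver excised day 28, total RNA purified. Significance: ≥1.5× or ≤1/1.5 of vehicle, direction concordant with other carcinogens.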

[2] = (A), Unigene Rn.144554, defined direction +, rat liver, oral once daily 28 days
[3] = (A), Unigene Rn.167075, defined direction +, rat liver, oral once daily 28 days, significant = 1.5 times or more or 1/1.5 or less of control
[4] = (A), Unigene Rn.167075, defined direction −, rat liver, oral once daily 28 days
[5] = (A), Unigene Rn.5834, defined direction +, rat liver, oral once daily 28 days
[6] = (A), Unigene Rn.9836, defined direction +, rat liver, oral once daily 28 days
[7] = (B), Unigene Rn.1430, defined direction −, rat liver, oral once daily 28 days
[8] = (B), Unigene Rn.19329, defined direction +, rat liver, oral once daily 28 days
[9] = (B), Unigene Rn.21240, defined direction +, rat liver, oral once daily 28 days
[10] = (C), Unigene Rn.106184, defined direction +, rat liver, oral once daily 28 days
[11] = (C), Unigene Rn.108075, defined direction −, rat liver, oral once daily 28 days
[12] = (C), Unigene Rn.11766, defined direction +, rat liver, oral once daily 28 days
[13] = (C), Unigene Rn.118529, defined direction −, rat liver, oral once daily 28 days
[14] = (C), Unigene Rn.119024, defined direction −, rat liver, oral once daily 28 days
[15] = (C), Unigene Rn.120914, defined direction +, rat liver, oral once daily 28 days
[16] = (C), Unigene Rn.123063, defined direction −, rat liver, oral once daily 28 days
[17] = (C), Unigene Rn.143213, defined direction −, rat liver, oral once daily 28 days
[18] = (C), Unigene Rn.144946, defined direction −, rat liver, oral once daily 28 days
[19] = (C), Unigene Rn.14744, defined direction −, rat liver, oral once daily 28 days
[20] = (C), Unigene Rn.1647, defined direction −, rat liver, oral once daily 28 days
[21] = (C), Unigene Rn.164817, defined direction +, rat liver, oral once daily 28 days
[22] = (C), Unigene Rn.167685, defined direction −, rat liver, oral once daily 28 days
[23] = (C), Unigene Rn.185941, defined direction −, rat liver, oral once daily 28 days
[24] = (C), Unigene Rn.18728, defined direction −, rat liver, oral once daily 28 days
[25] = (C), Unigene Rn.201760, defined direction +, rat liver, oral once daily 28 days
[26] = (C), Unigene Rn.23969, defined direction +, rat liver, oral once daily 28 days
[27] = (C), Unigene Rn.24561, defined direction −, rat liver, oral once daily 28 days
[28] = (C), Unigene Rn.43232, defined direction −, rat liver, oral once daily 28 days
[29] = (C), Unigene Rn.4620, defined direction +, rat liver, oral once daily 28 days
[30] = (C), Unigene Rn.9757, defined direction +, rat liver, oral once daily 28 days
[31] = (C), Unigene Rn.9779, defined direction +, rat liver, oral once daily 28 days
[32] = (C), Unigene Rn.9862, defined direction −, rat liver, oral once daily 28 days
[33] = (D), Unigene Rn.9939, defined direction −, rat liver, oral once daily 28 days

Compound: c1ccoc1 [TS028, Furan]
- Liver carcinogenicity (liver): Cr+
- Carcinogenicity (rodent): C+
- Behavior of gene caused by administration of chemical substance, Gene No. 4846 [1, 2]: +
- Behavior of gene caused by administration of chemical substance, Gene No. 4218 [1, 3]: +
- Behavior of gene caused by administration of chemical substance, Gene No. 2026 [1, 4]: +
- Behavior of gene caused by administration of chemical substance, Gene No. 6182 [1, 5]: +
- Behavior of gene caused by administration of chemical substance, Gene No. 5600 [1, 6]: +
- Behavior of gene caused by administration of chemical substance, Gene No. 1494 [1, 7]: +
- Behavior of gene caused by administration of chemical substance, Gene No. 2045 [1, 8]: −
- Behavior of gene caused by administration of chemical substance, Gene No. 2203 [1, 9]: −
- Behavior of gene caused by administration of chemical substance, Gene No. 533 [1, 10]: +
- Behavior of gene caused by administration of chemical substance, Gene No. 725 [1, 11]: −
- Behavior of gene caused by administration of chemical substance, Gene No. 1163 [1, 12]: −
- Behavior of gene caused by administration of chemical substance, Gene No. 4973 [1, 13]: +
- Behavior of gene caused by administration of chemical substance, Gene No. 4095 [1, 14]: +
- Behavior of gene caused by administration of chemical substance, Gene No. 1334 [1, 15]: −
- Behavior of gene caused by administration of chemical substance, Gene No. 6620 [1, 15]: −
- Behavior of gene caused by administration of chemical substance, Gene No. 6303 [1, 16]: +
- Behavior of gene caused by administration of chemical substance, Gene No. 5878 [1, 17]: +
- Behavior of gene caused by administration of chemical substance, Gene No. 1131 [1, 18]: −
- Behavior of gene caused by administration of chemical substance, Gene No. 1562 [1, 19]: +
- Behavior of gene caused by administration of chemical substance, Gene No. 1741 [1, 20]: +
- Behavior of gene caused by administration of chemical substance, Gene No. 893 [1, 21]: −
- Behavior of gene caused by administration of chemical substance, Gene No. 6026 [1, 22]: −
- Behavior of gene caused by administration of chemical substance, Gene No. 154 [1, 23]: +
- Behavior of gene caused by administration of chemical substance, Gene No. 1993 [1, 24]: +
- Behavior of gene caused by administration of chemical substance, Gene No. 813 [1, 25]: +
- Behavior of gene caused by administration of chemical substance, Gene No. 2494 [1, 26]: −
- Behavior of gene caused by administration of chemical substance, Gene No. 2546 [1, 27]: −
- Behavior of gene caused by administration of chemical substance, Gene No. 3776 [1, 28]: +
- Behavior of gene caused by administration of chemical substance, Gene No. 3929 [1, 29]: +
- Behavior of gene caused by administration of chemical substance, Gene No. 1119 [1, 30]: +
- Behavior of gene caused by administration of chemical substance, Gene No. 6742 [1, 31]: +
- Behavior of gene caused by administration of chemical substance, Gene No. 5634 [1, 32]: +
- Behavior of gene caused by administration of chemical substance, Gene No. 5726 [1, 33]: −

Compound: CC(=N)S [TS030, Thioacetoamide]
- Liver carcinogenicity (liver): Cr+
- Carcinogenicity (rodent): C+
- Behavior of gene caused by administration of chemical substance, Gene No. 4846 [1, 2]: +
- Behavior of gene caused by administration of chemical substance, Gene No. 4218 [1, 3]: +
- Behavior of gene caused by administration of chemical substance, Gene No. 2026 [1, 4]: +
- Behavior of gene caused by administration of chemical substance, Gene No. 6182 [1, 5]: +
- Behavior of gene caused by administration of chemical substance, Gene No. 5600 [1, 6]: +
- Behavior of gene caused by administration of chemical substance, Gene No. 1494 [1, 7]: +
- Behavior of gene caused by administration of chemical substance, Gene No. 2045 [1, 8]: −
- Behavior of gene caused by administration of chemical substance, Gene No. 2203 [1, 9]: −
- Behavior of gene caused by administration of chemical substance, Gene No. 533 [1, 10]: +
- Behavior of gene caused by administration of chemical substance, Gene No. 725 [1, 11]: +
- Behavior of gene caused by administration of chemical substance, Gene No. 1163 [1, 12]: −
- Behavior of gene caused by administration of chemical substance, Gene No. 4973 [1, 13]: +
- Behavior of gene caused by administration of chemical substance, Gene No. 4095 [1, 14]: +
- Behavior of gene caused by administration of chemical substance, Gene No. 1334 [1, 15]: −
- Behavior of gene caused by administration of chemical substance, Gene No. 6620 [1, 15]: −
- Behavior of gene caused by administration of chemical substance, Gene No. 6303 [1, 16]: +
- Behavior of gene caused by administration of chemical substance, Gene No. 5878 [1, 17]: −
- Behavior of gene caused by administration of chemical substance, Gene No. 1131 [1, 18]: −
- Behavior of gene caused by administration of chemical substance, Gene No. 1562 [1, 19]: +
- Behavior of gene caused by administration of chemical substance, Gene No. 1741 [1, 20]: +
- Behavior of gene caused by administration of chemical substance, Gene No. 893 [1, 21]: +
- Behavior of gene caused by administration of chemical substance, Gene No. 6026 [1, 22]: −
- Behavior of gene caused by administration of chemical substance, Gene No. 154 [1, 23]: +
- Behavior of gene caused by administration of chemical substance, Gene No. 1993 [1, 24]: +
- Behavior of gene caused by administration of chemical substance, Gene No. 813 [1, 25]: +
- Behavior of gene caused by administration of chemical substance, Gene No. 2494 [1, 26]: +
- Behavior of gene caused by administration of chemical substance, Gene No. 2546 [1, 27]: −
- Behavior of gene caused by administration of chemical substance, Gene No. 3776 [1, 28]: +
- Behavior of gene caused by administration of chemical substance, Gene No. 3929 [1, 29]: −
- Behavior of gene caused by administration of chemical substance, Gene No. 1119 [1, 30]: −
- Behavior of gene caused by administration of chemical substance, Gene No. 6742 [1, 31]: −
- Behavior of gene caused by administration of chemical substance, Gene No. 5634 [1, 32]: −
- Behavior of gene caused by administration of chemical substance, Gene No. 5726 [1, 33]: +

Compound: OCCCl [TS032, 2-Chloroethanol]
- Liver carcinogenicity (liver): Cr−
- Carcinogenicity (rodent): C−
- Behavior of gene caused by administration of chemical substance, Gene No. 154 ([1]; rat, in vivo): −
- Behavior of gene caused by administration of chemical substance, Gene No. 533 ([1]; rat, in vivo): −
- Behavior of gene caused by administration of chemical substance, Gene No. 725 ([1]; rat, in vivo): −
- Behavior of gene caused by administration of chemical substance, Gene No. 813 ([1]; rat, in vivo): −
- Behavior of gene caused by administration of chemical substance, Gene No. 893 ([1]; rat, in vivo): −
- Behavior of gene caused by administration of chemical substance, Gene No. 1119 ([1]; rat, in vivo): −
- Behavior of gene caused by administration of chemical substance, Gene No. 1131 ([1]; rat, in vivo): −
- Behavior of gene caused by administration of chemical substance, Gene No. 1163 ([1]; rat, in vivo): −
- Behavior of gene caused by administration of chemical substance, Gene No. 1334 ([1]; rat, in vivo): −
- Behavior of gene caused by administration of chemical substance, Gene No. 1494 ([1]; rat, in vivo): −
- Behavior of gene caused by administration of chemical substance, Gene No. 1562 ([1]; rat, in vivo): −
- Behavior of gene caused by administration of chemical substance, Gene No. 1741 ([1]; rat, in vivo): −
- Behavior of gene caused by administration of chemical substance, Gene No. 1993 ([1]; rat, in vivo): −
- Behavior of gene caused by administration of chemical substance, Gene No. 2026 ([1]; rat, in vivo): −
- Behavior of gene caused by administration of chemical substance, Gene No. 2045 ([1]; rat, in vivo): −
- Behavior of gene caused by administration of chemical substance, Gene No. 2203 ([1]; rat, in vivo): −
- Behavior of gene caused by administration of chemical substance, Gene No. 2494 ([1]; rat, in vivo): −
- Behavior of gene caused by administration of chemical substance, Gene No. 2546 ([1]; rat, in vivo): −
- Behavior of gene caused by administration of chemical substance, Gene No. 3776 ([1]; rat, in vivo): −
- Behavior of gene caused by administration of chemical substance, Gene No. 3929 ([1]; rat, in vivo): −
- Behavior of gene caused by administration of chemical substance, Gene No. 4095 ([1]; rat, in vivo): −
- Behavior of gene caused by administration of chemical substance, Gene No. 4218 ([1]; rat, in vivo): −
- Behavior of gene caused by administration of chemical substance, Gene No. 4846 ([1]; rat, in vivo): −
- Behavior of gene caused by administration of chemical substance, Gene No. 4973 ([1]; rat, in vivo): −
- Behavior of gene caused by administration of chemical substance, Gene No. 5600 ([1]; rat, in vivo): −
- Behavior of gene caused by administration of chemical substance, Gene No. 5634 ([1]; rat, in vivo): −
- Behavior of gene caused by administration of chemical substance, Gene No. 5726 ([1]; rat, in vivo): −
- Behavior of gene caused by administration of chemical substance, Gene No. 5878 ([1]; rat, in vivo): −
- Behavior of gene caused by administration of chemical substance, Gene No. 6026 ([1]; rat, in vivo): −
- Behavior of gene caused by administration of chemical substance, Gene No. 6182 ([1]; rat, in vivo): −
- Behavior of gene caused by administration of chemical substance, Gene No. 6303 ([1]; rat, in vivo): −
- Behavior of gene caused by administration of chemical substance, Gene No. 6620 ([1]; rat, in vivo): −
- Behavior of gene caused by administration of chemical substance, Gene No. 6742 ([1]; rat, in vivo): −
